Test results: ChEMBL document CHEMBL1201862, “PubChem BioAssay data set” (2004)
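These data come from cells grown in 96-well plates and exposed to compound for 48 hours at five concentrations. The concentration for 50% growth inhibition is given as GI50.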 Activity calls are given as the source filed them. No stated cut-off is given here; in the data, active = GI50 up to about 1.1 µM and inactive = higher.

How the values were obtained:
Experiment in all cases: inhibition of tumour cell growth, NCI panel, 48 h
A549 = system: A549
COLO 205 = system: COLO 205
HCC 2998 = system: HCC 2998
HCT-15 = system: HCT-15
HOP-62 = system: HOP-62
HOP-92 = system: HOP-92
IGROV-1 = system: IGROV-1
M14 = system: M14
NCI/ADR-RES = system: NCI/ADR-RES
OVCAR-3 = system: OVCAR-3
RPMI-8226 = system: RPMI-8226
SF-295 = system: SF-295
SNB-19 = system: SNB-19
SR = system: SR
T47D = system: T47D
ACHN = system: ACHN
Malme-3M = system: Malme-3M
NCI-H460 = system: NCI-H460
OVCAR-4 = system: OVCAR-4
TK-10 = system: TK-10

`N#Cc1ccc(-c2nc3cc(Cl)ccc3[nH]2)cc1` was tested, and the GI50 (A549) was 38.3 µM (inactive), the GI50 (COLO 205) was 74.8 µM (inactive) and the GI50 (HCC 2998) was 38.1 µM (inactive). The GI50 (HCT-15) was 39.9 µM, the GI50 (HOP-62) was > 100 µM (inactive) and the GI50 (HOP-92) was > 100 µM (inactive). The GI50 (IGROV-1) was > 100 µM (inactive), the GI50 (M14) was 79.1 µM (inactive) and the GI50 (NCI/ADR-RES) was 30.4 µM (inactive). The GI50 (OVCAR-3) was 54.7 µM (inactive), the GI50 (RPMI-8226) was > 100 µM (inactive) and the GI50 (SF-295) was 44.6 µM (inactive). The GI50 (SNB-19) was > 100 µM (inactive), the GI50 (SR) was 80 µM (inactive) and the GI50 (T47D) was 35.6 µM (inactive).

In the case of `CCCCc1ccc(Nc2nc3c(ncn3C3CC(O)C(CN=[N+]=[N-])O3)c(=O)[nH]2)cc1` (stereo not drawn), the GI50 (A549) is reported as > 100 µM (inactive), the GI50 (ACHN) is reported as > 100 µM (inactive) and the GI50 (COLO 205) is reported as > 100 µM (inactive). For the same compound, the GI50 (HCC 2998) was > 100 µM (inactive), the GI50 (HCT-15) was over 100 µM and the GI50 (HOP-62) was > 100 µM (inactive). For the same compound, the GI50 (HOP-92) was > 100 µM (inactive), the GI50 (IGROV-1) was > 100 µM (inactive) and the GI50 (M14) was > 100 µM (inactive). The GI50 (Malme-3M) was > 100 µM (inactive), the GI50 (NCI-H460) was > 100 µM (inactive) and the GI50 (NCI/ADR-RES) was > 100 µM (inactive). The GI50 (OVCAR-3) was > 100 µM (inactive), the GI50 (OVCAR-4) was > 100 µM (inactive) and the GI50 (RPMI-8226) was > 100 µM (inactive). The GI50 (SF-295) was > 100 µM (inactive), the GI50 (SNB-19) was > 100 µM (inactive) and the GI50 (SR) was > 100 µM (inactive). The GI50 (T47D) was 54.7 µM (inactive).

With `COc1ccc(-n2sc3ncc([N+](=O)[O-])cc3c2=O)cc1` the GI50 (A549) was > 100 µM (inactive), the GI50 (ACHN) was > 100 µM (inactive) and the GI50 (COLO 205) was > 100 µM (inactive). For the same compound, the GI50 (HCC 2998) was > 100 µM (inactive), the GI50 (HCT-15) was over 100 µM and the GI50 (HOP-62) was > 100 µM (inactive). The GI50 (IGROV-1) was > 100 µM (inactive), the GI50 (M14) was > 100 µM (inactive) and the GI50 (Malme-3M) was > 100 µM (inactive). For the same compound, the GI50 (NCI-H460) was > 100 µM (inactive), the GI50 (NCI/ADR-RES) was > 100 µM (inactive) and the GI50 (OVCAR-3) was > 100 µM (inactive). The GI50 (OVCAR-4) was > 100 µM (inactive), the GI50 (RPMI-8226) was > 100 µM (inactive) and the GI50 (SF-295) was > 100 µM (inactive). For the same compound, the GI50 (SNB-19) was > 100 µM (inactive), the GI50 (SR) was > 100 µM (inactive) and the GI50 (T47D) was > 100 µM (inactive). For the same compound, the GI50 (TK-10) was > 100 µM (inactive).

For `CCC(CON(C)c1ccccc1)(SC)SC`, the GI50 (A549) was > 100 µM (inactive), the GI50 (ACHN) was > 100 µM (inactive) and the GI50 (COLO 205) was > 100 µM (inactive). For the same compound, the GI50 (HCC 2998) was > 100 µM (inactive), the GI50 (HCT-15) was over 100 µM and the GI50 (HOP-62) was > 100 µM (inactive). For the same compound, the GI50 (HOP-92) was > 100 µM (inactive), the GI50 (IGROV-1) was > 100 µM (inactive) and the GI50 (M14) was > 100 µM (inactive). For the same compound, the GI50 (Malme-3M) was 13.5 µM (inactive), the GI50 (NCI-H460) was > 100 µM (inactive) and the GI50 (NCI/ADR-RES) was > 100 µM (inactive). For the same compound, the GI50 (OVCAR-4) was > 100 µM (inactive), the GI50 (RPMI-8226) was > 100 µM (inactive) and the GI50 (SF-295) was > 100 µM (inactive). For the same compound, the GI50 (SNB-19) was > 100 µM (inactive), the GI50 (SR) was > 100 µM (inactive) and the GI50 (T47D) was 13.3 µM (inactive). The GI50 (TK-10) was > 100 µM (inactive).

With `CCOC(=O)C1=CNC(C(=O)OCC)C1c1cccn1-c1ccc(Cl)cc1[N+](=O)[O-]` (stereo not drawn) the GI50 (A549) was 32.1 µM (inactive), the GI50 (ACHN) was 30.3 µM (inactive) and the GI50 (COLO 205) was 31.2 µM (inactive). For the same compound, the GI50 (HCC 2998) was 16.3 µM (inactive), the GI50 (HCT-15) was 21.5 µM and the GI50 (HOP-62) was 10 µM (inactive). For the same compound, the GI50 (HOP-92) was 17.6 µM (inactive), the GI50 (IGROV-1) was 9.4 µM (inactive) and the GI50 (M14) was 15.3 µM (inactive). The GI50 (NCI-H460) was 15.4 µM (inactive), the GI50 (NCI/ADR-RES) was 18.5 µM (inactive) and the GI50 (OVCAR-3) was 10.6 µM (inactive). The GI50 (OVCAR-4) was 31.3 µM (inactive), the GI50 (SF-295) was 16.4 µM (inactive) and the GI50 (SR) was 25.7 µM (inactive). The GI50 (T47D) was 24.2 µM (inactive) and the GI50 (TK-10) was 13.1 µM (inactive).

For `NC(=O)NC(=O)c1cccc(NC(=O)CBr)c1`, the GI50 (A549) was 0.912 µM (active), the GI50 (ACHN) was < 0.0209 µM (active) and the GI50 (COLO 205) was < 0.01 µM (active). The GI50 (HCC 2998) was 0.282 µM (active), the GI50 (HCT-15) was under 0.0161 µM and the GI50 (HOP-62) was 0.0577 µM (active). The GI50 (HOP-92) was < 0.0216 µM (active), the GI50 (IGROV-1) was 0.0266 µM (active) and the GI50 (M14) was 0.198 µM (active). For the same compound, the GI50 (NCI-H460) was < 0.0509 µM (active), the GI50 (NCI/ADR-RES) was < 0.0171 µM (active) and the GI50 (OVCAR-3) was < 0.01 µM (active). For the same compound, the GI50 (OVCAR-4) was 0.0706 µM (active), the GI50 (RPMI-8226) was < 0.0141 µM (active) and the GI50 (SF-295) was 0.197 µM (active). For the same compound, the GI50 (SNB-19) was 0.515 µM (active), the GI50 (SR) was < 0.01 µM (active) and the GI50 (T47D) was 1.42 µM (inactive). For the same compound, the GI50 (TK-10) was < 0.0231 µM (active).
